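Dose response: 5 concentrations. Exposure: 48 h. Format: 96-well plates. Endpoint: linear interpolation; highest concentration if not reached. GI50: concentration for 50% inhibition of growth.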 The source made the active and inactive calls. No stated cut-off is given here; in the data, active = GI50 up to about 1.1 µM and inactive = higher.
Assays:
Experiment in all cases: NCI anticancer screen, dose series, 48 h
[1] = tested on: BT-549
[2] = tested on: CCRF-CEM
[3] = tested on: HCT-116
[4] = tested on: HCT-15
[5] = tested on: HL-60
[6] = tested on: HT-29
[7] = tested on: KM12
[8] = tested on: MDA-MB-435
[9] = tested on: MDA-N
[10] = tested on: Malme-3M
[11] = tested on: NCI-H23
[12] = tested on: NCI/ADR-RES
[13] = tested on: OVCAR-3
[14] = tested on: PC-3
[15] = tested on: SF-539
[16] = tested on: SK-OV-3
[17] = tested on: SNB-75
[18] = tested on: T47D
[19] = tested on: UO-31
[20] = tested on: SR

SMILES | GI50 [1] | GI50 [2] | GI50 [3] | GI50 [4] | GI50 [5] | GI50 [6] | GI50 [7] | GI50 [8] | GI50 [9] | GI50 [10] | GI50 [11] | GI50 [12] | GI50 [13] | GI50 [14] | GI50 [15] | GI50 [16] | GI50 [17] | GI50 [18] | GI50 [19] | GI50 [20]
O=C(O)C1CCCCC1c1c2ccc(=O)cc-2oc2cc(O)ccc12 (centres undefined) | 47.6 µM (inactive) | 42.8 µM (inactive) | 31 µM (inactive) | 34.6 µM | 54.6 µM (inactive) | 29.3 µM (inactive) | 19.9 µM (inactive) | 13.4 µM (inactive) | 21.6 µM (inactive) | 29.7 µM (inactive) | 29.8 µM (inactive) | 43.9 µM (inactive) | 24.4 µM (inactive) | 28.8 µM (inactive) | 18 µM (inactive) | 32.1 µM (inactive) | 25.1 µM (inactive) | 19.1 µM (inactive) | 61 µM (inactive) | 
Oc1ccc2ccccc2c1/C=N/Cc1c(O)ccc2ccccc12 | 45.3 µM (inactive) | 6.25 µM (inactive) | 28.3 µM (inactive) | 29.4 µM |  | > 100 µM (inactive) | 55.2 µM (inactive) | 77.6 µM (inactive) | 51.1 µM (inactive) | 43.2 µM (inactive) | 42.7 µM (inactive) | 33.8 µM (inactive) | 18.4 µM (inactive) | 38.7 µM (inactive) | 31.6 µM (inactive) | > 100 µM (inactive) | 37.9 µM (inactive) | 19.1 µM (inactive) | 28.7 µM (inactive) | 27.2 µM (inactive)
NS(=O)(=O)c1cc2c(cc1Cl)NC(Cc1ccccc1)NS2(=O)=O (centres undefined) [BENZYLHYDROCHLOROTHIAZIDE] | > 100 µM (inactive) |  | 46.1 µM (inactive) | > 100 µM |  | > 100 µM (inactive) | > 100 µM (inactive) | 45.1 µM (inactive) | 53.7 µM (inactive) | > 100 µM (inactive) | > 100 µM (inactive) | > 100 µM (inactive) | > 100 µM (inactive) | > 100 µM (inactive) | 45.1 µM (inactive) | > 100 µM (inactive) | > 100 µM (inactive) | > 100 µM (inactive) | > 100 µM (inactive) | 61 µM (inactive)
COc1ccc2c(c1O)C13CCN(C)C(C2)C1CCC1(C3)OCCO1 (centres undefined) | > 100 µM (inactive) |  | > 100 µM (inactive) | > 100 µM |  | > 100 µM (inactive) | > 100 µM (inactive) | > 100 µM (inactive) | > 100 µM (inactive) | > 100 µM (inactive) | > 100 µM (inactive) | > 100 µM (inactive) | > 100 µM (inactive) | > 100 µM (inactive) |  | > 100 µM (inactive) | > 100 µM (inactive) | > 100 µM (inactive) | > 100 µM (inactive) | > 100 µM (inactive)
c1cncc(CNc2ncn[nH]2)c1 | > 100 µM (inactive) |  | > 100 µM (inactive) | > 100 µM |  | > 100 µM (inactive) | > 100 µM (inactive) | > 100 µM (inactive) | > 100 µM (inactive) | > 100 µM (inactive) | > 100 µM (inactive) | > 100 µM (inactive) | > 100 µM (inactive) | > 100 µM (inactive) | > 100 µM (inactive) | > 100 µM (inactive) | > 100 µM (inactive) | > 100 µM (inactive) | > 100 µM (inactive) | > 100 µM (inactive)
c1ccc2c(c1)CC1=C(O2)c2ccccc2OC1 | 25.1 µM (inactive) | 32.7 µM (inactive) | 16.4 µM (inactive) | 25.8 µM |  | 31.6 µM (inactive) | 29.1 µM (inactive) | 27.3 µM (inactive) | 19.1 µM (inactive) | 52.6 µM (inactive) | 40.9 µM (inactive) | 36.6 µM (inactive) | 21.3 µM (inactive) | 38.2 µM (inactive) | 26.3 µM (inactive) | > 100 µM (inactive) |  | 17 µM (inactive) | 41.2 µM (inactive) | 20.4 µM (inactive)

From ChEMBL document CHEMBL1201862, “PubChem BioAssay data set” (2004)
